Where a SMILES comes first, the peptide text is derived from it. [ ]: non-standard residue; d: D form. The star is where a group is joined. Phe(4-I) = N[C@@H](Cc1ccc(I)cc1)C(=O)O; hLeu = CC(C)CC[C@H](N)C(=O)O; Isobutyryl = CC(C)C(=O)*
Molecular target: T1, Hypoxia-inducible factor 1-alpha [228-298] (Homo sapiens, UniProt Q16665)
T1 construct: 228-298
Experiment: Assessment of HIF-1α and 2α Binding Activity in In Vitro Assays
Protocol: MST experiments were performed on a Monolith NT.115 system (Nanotemper Technologies GmbH), in assay buffer containing 50 nM labelled protein, 10% DMSO and 0.05% TWEEN-20. MST measurements were performed using 50% LED and 50% MST power.

T1 sequence (Q16665 whole entry): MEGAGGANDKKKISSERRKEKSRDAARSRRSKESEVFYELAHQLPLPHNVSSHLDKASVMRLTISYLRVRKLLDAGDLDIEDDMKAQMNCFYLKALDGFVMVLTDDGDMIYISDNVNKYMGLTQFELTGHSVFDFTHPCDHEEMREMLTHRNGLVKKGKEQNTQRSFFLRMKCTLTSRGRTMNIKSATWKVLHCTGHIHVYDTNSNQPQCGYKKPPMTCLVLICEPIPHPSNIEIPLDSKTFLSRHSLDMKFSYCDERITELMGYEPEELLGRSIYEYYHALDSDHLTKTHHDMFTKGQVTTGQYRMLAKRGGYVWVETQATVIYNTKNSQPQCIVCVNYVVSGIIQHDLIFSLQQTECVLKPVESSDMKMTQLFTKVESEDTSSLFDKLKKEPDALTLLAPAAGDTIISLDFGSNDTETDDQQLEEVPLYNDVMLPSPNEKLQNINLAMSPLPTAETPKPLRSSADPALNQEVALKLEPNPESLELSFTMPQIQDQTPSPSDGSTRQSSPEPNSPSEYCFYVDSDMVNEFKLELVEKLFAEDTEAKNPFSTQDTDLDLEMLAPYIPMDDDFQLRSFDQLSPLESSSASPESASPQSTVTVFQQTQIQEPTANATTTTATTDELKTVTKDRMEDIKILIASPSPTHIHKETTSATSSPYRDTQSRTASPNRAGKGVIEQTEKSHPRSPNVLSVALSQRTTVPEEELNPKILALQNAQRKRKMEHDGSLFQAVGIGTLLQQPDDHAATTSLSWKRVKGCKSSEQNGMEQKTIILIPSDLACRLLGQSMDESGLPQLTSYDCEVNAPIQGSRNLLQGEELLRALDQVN

`CC(C)CC[C@H](NC(=O)C(C)C)C(=O)N[C@@H](Cc1ccc(I)cc1)C(=O)N[C@@H](CS)C(N)=O` [US20250326790, Example 1] (Isobutyryl-[hLeu]-[Phe(4-I)]-Cys-NH2) was tested, and the Kd was > 40 µM.
In the case of `CC(C)CC[C@H](NS(=O)(=O)c1ccc(Cl)s1)C(=O)N[C@@H](Cc1ccc(I)cc1)C(=O)N[C@@H](CS)C(=O)NCCCCCCN` [US20250326790, Example 41], the Kd is reported as > 100 µM.

— BindingDB's records for patent US20250326790 (University of Southampton, 2025)
